# Read-outs that look alike come from different tables or passages of the source.
# Tests used:
# [1] = tested on: IAV PR8; test: Virus yield reduction assay, IAV PR8 (virus titer by RT-qPCR); format: cell-based, Influenza A virus, strain: A/Puerto Rico/8/1934 (H1N1); conditions: 0.2% BSA; for reduction of the virus titer: Calu-3 and Caco-2 cells, 24 h
# Description: (§1) Calu-3 and Caco-2 cells were seeded in 24-well plates (Greiner Bio-One GmbH, Frickenhausen, Germany) and grown to 90% confluence. The cells were washed once with infection medium [IMDM supplemented with 0.2% bovine serum albumin (BSA) (Carl Roth GmbH + Co. KG, Karlsruhe, Germany) and 1% penicillin–streptomycin] prior to infection with a multiplicity of infection (MOI) of 0.01 of IAV PR8 or SARS-CoV-2 for 1 h in 200 µL of infection medium per well. Afterwards, the virus inoculum was removed completely, and the cells were washed once with infection medium and then treated with 1 mL per well of different concentrations of zapnometinib in infection medium with 1% dimethyl sulfoxide (DMSO) (Merck Millipore, Burlington, MA, USA) for 24 h at 37°C, 5% CO2. Supernatants were harvested and stored at −80°C for subsequent determination of virus titer and EC50 value. Cell lysates were prepared as described in the “Preparation of cell lysates and WES™ analysis” section for WES™ analysis.
# The viral titers of IAV and SARS-CoV-2 viruses were determined using a real-time one-step multiplex RT-qPCR method. Briefly, viral nucleic acid extraction was performed using a QIAamp Viral RNA Mini Kit (Qiagen, Venlo, Netherlands) according to the manufacturer’s instructions. A TaqMan-based RT-qPCR assay was carried out using a QuantiNova Pathogen kit (Qiagen, Venlo, Netherlands) with specific primers targeting the SARS-CoV-2 N gene (2019-CoV2-N1F: […], 2019-CoV2-N1R: […], 2019-CoV2-N1P [6FAM]: […] [BHQ1]) and M gene for IAV according to the WHO guidelines. The viral genome copies per mL (gc/mL) were determined based on a standard curve prepared with 10-fold serial dilutions of the target gene. For quality control, nuclease-free water was included in each set of extractions as a negative control to monitor any possible cross-contamination. Moreover, an artificial exogenous QuantiNova RNA internal control (Qiagen, Venlo, Netherlands) was included during the nucleic acid purification to monitor the RNA purification efficiency and the RT-PCR amplification. A Rotor-Gene Q™ Real-Time PCR detection system (Qiagen, Venlo, Netherlands) was used for amplification, and the data were analyzed using Q-Rex software (Qiagen, Venlo, Netherlands).
# For EC50 determination, a virus yield reduction assay was performed. The virus titer in the cell culture supernatant was determined and normalized to the solvent control. The EC50 value was determined using the “log(inhibitor) vs. normalized response - Variable slope” equation in GraphPad Prism version 9.4.0.
# [2] = tested on: MEK1/2 (ERK1/2 phosphorylation); test: IC50 determination in virus-infected cells, pERK/ERK ratio by WES; format: cell-based, Homo sapiens; conditions: for IC50: Homo sapiens
# Description: as §1
# Cells were lysed using cold modified RIPA buffer [0.24% (w/v) tris base (Sigma-Aldrich, St. Louis, Missouri, USA), 0.88% (w/v) NaCl (Carl Roth, Karlsruhe, Germany), 0.2% (v/v) 500 mM ethylenediaminetetraacetic acid (EDTA) (Sigma-Aldrich, St. Louis, Missouri, USA), 1% (v/v) Triton X-100 (Sigma-Aldrich, St. Louis, Missouri, USA), 0.5% (w/v) sodium deoxycholate (Sigma-Aldrich, St. Louis, Missouri, USA), 0.1% (w/v) sodium dodecyl sulfate (SDS) (Carl Roth, Karlsruhe, Germany), 10% (v/v) glycerol (Carl Roth, Karlsruhe, Germany), 0.05% phenylmethylsulfonyl fluoride (PMSF) (Carl Roth, Karlsruhe, Germany), 0.01% Benzonase® Nuclease (Sigma-Aldrich, St. Louis, Missouri, USA), protease inhibitor cocktail (Roche, Basel, Switzerland), and phosphatase inhibitor cocktail (Roche, Basel, Switzerland) in water]. Determination of the protein concentration was performed using the Pierce™ BCA Protein Assay Kit (Thermo Fisher Scientific Inc., Waltham, MA, USA) according to the manufacturer’s instructions. The samples were analyzed by Wes™ using a total protein concentration of 0.25–0.5 µg/µL for each sample, the Jess/Wes Separation kit (12–230 kDa), primary antibodies against ERK1/2, p44/42 MAPK (137F5) Rabbit mAb (Cell Signaling Technology, Danvers, MA, USA, Cat. No. 4695S) and phospho-ERK1/2 (pERK1/2), Phospho-p44/42 MAPK (Erk1/2) (Thr202/Tyr204) (D13.14.4E), XP® Rabbit mAb (Cell Signaling Technology, Danvers, MA, USA, Cat. no. 4370S) in a 1:50 dilution, anti-Influenza A virus Nucleoprotein (NP) antibody (rabbit MAb) (Sino Biological, Beijing, China Cat.no 40208-R010) in a 1:150 dilution, SARS-CoV-2 nucleocapsid protein antibody (ProSci Inc., Poway, CA, USA, Cat. no. 35-580) in a 1:100 dilution, the anti-goat, anti-rabbit, and anti-mouse detection modules, and the EZ Standard Pack 1 (12–230 kDa), according to the manufacturer’s instructions. Analysis of the obtained data was performed using the Compass for SW 4.1.0 software, Microsoft Excel, and the GraphPad Prism 9.2.0 software. Ratios were calculated from the area under the curve of the respective detected signals.
# Twenty-four hours before the experiment, the growth medium was exchanged to medium with respective FBS or BSA concentration. Then, cells were stimulated by the addition of tumor necrosis factor alpha (TNF-α) (Sigma-Aldrich, St. Louis, Missouri, USA) for 30 min at 37°C, 5% CO2, followed by treatment with different zapnometinib concentrations and a DMSO (solvent) control for 1 h. For determination of the IC50 value in cells infected with IAV PR8 or SARS-CoV-2, cells were infected with the respective virus and treated with zapnometinib for 24 h as described in the “Virus yield reduction assay” section. After incubation, cell lysates were prepared, and the samples were analyzed by WES™ as described in the “Preparation of cell lysates and WES™ analysis” section. The pERK/ERK ratio was calculated and normalized to the solvent control. […]
# [3] = tested on: IBV Lee; design: method as in Laure et al., 2020; conditions: medium containing 0.2% BSA, ref Laure et al., 2020; cited from earlier work
# [4] = tested on: SARS-CoV-2 B.1 isolate “FI”; design: method as in Schreiber et al., 2022; conditions: ref Schreiber et al., 2022, read-out: EC50 value against SARS-CoV-2; cited from earlier work
compound,measurement,setting,value
"O=C(O)c1ccc(F)c(F)c1Nc1ccc(I)cc1Cl [zapnometinib, 2-(2-chloro-4-iodophenylamino)-N-3,4-difluoro benzoic acid]",reduction of the virus titer,[1]; 12.5 µM,≥ 50%
same,reduction of the virus titer,[1]; 25 µM,≥ 50%
same,reduction of the virus titer,[1]; 100 µM,> 90%
same,EC50,"[1]; Caco-2 cells, MOI 0.01, 24 h, read-out: EC50 value against IAV PR8",5.72 µM
same,EC50,"[1]; Calu-3 cells, MOI 0.01, 24 h, read-out: EC50 value against IAV PR8",7.13 µM
same,EC50,"[1]; Influenza A virus, PR8, Caco-2, 24 h, Caco-2 cells, MOI 0.01, 24 h, read-out: EC50 value against IAV PR8",5.72 µM
same,EC50,"[1]; Influenza A virus, PR8, Calu-3, 24 h, Calu-3 cells, MOI 0.01, 24 h, read-out: EC50 value against IAV PR8",7.13 µM
same,EC50,"[1]; Influenza A virus, PR8, summary for Calu-3 and Caco-2 cells, read-out: EC50 values for IAV PR8 in both cell lines",< 10 µM
same,Level of MEK activation (ERK phosphorylation) at EC50,"[2]; Caco-2 cells, IAV PR8, interpolated at EC50 5.72 µM",37%
same,Level of MEK activation (ERK phosphorylation) at EC50,"[2]; Caco-2 cells, SARS-CoV-2, interpolated at EC50 22.9 µM",25%
same,Level of MEK activation (ERK phosphorylation) at EC50,"[2]; Calu-3 cells, IAV PR8, interpolated at EC50 7.13 µM",25%
same,Level of MEK activation (ERK phosphorylation) at EC50,"[2]; Calu-3 cells, SARS-CoV-2, interpolated at EC50 19.7 µM",10%
same,IC50,"[2]; Caco-2, 24 h, read-out: IC50 value (ERK phosphorylation) in infected cells, IAV PR8-infected Caco-2 cells, MOI 0.01, 0.2% BSA, 24 h",2.24 µM
same,IC50,"[2]; Caco-2, 24 h, read-out: IC50 value (ERK phosphorylation) in infected cells, SARS-CoV-2-infected Caco-2 cells, MOI 0.01, 0.2% BSA, 24 h, bottom plateau constrained to 0",5.65 µM
same,IC50,"[2]; Calu-3, 24 h, read-out: IC50 value (ERK phosphorylation) in infected cells, IAV PR8-infected Calu-3 cells, MOI 0.01, 0.2% BSA, 24 h",1.01 µM
same,IC50,"[2]; Calu-3, 24 h, read-out: IC50 value (ERK phosphorylation) in infected cells, SARS-CoV-2-infected Calu-3 cells, MOI 0.01, 0.2% BSA, 24 h",1.99 µM
same,EC50,[3],4.19 µM
same,EC50,[4],31.3 µM

# From paper PMC10641236, “Influenza A virus replication has a stronger dependency on Raf/MEK/ERK signaling pathway activity than SARS-CoV-2” (Frontiers in Cellular and Infection Microbiology, 2023)
